How the values were obtained:
[1] = molecular target: recombinant, human CRBN-DDB1 and BRD4 (Homo sapiens, UniProt O60885+Q96SW2); experiment: CRBN-DDB1/BRD4 dimerization (proximity) AlphaScreen assay; type: biochemical; conditions: co-incubation with 111 nM dBET1, competitor 1 μM, stereo-specific
PIM1 = experiment: Expression proteomics in MV4-11 cells; conditions: 250 nM, 2 hours
[2] = tested on: MV4-11 cell proliferation; experiment: MV4-11 cell proliferation (ATP content); type: cell-based; conditions: Homo sapiens, MV4-11, 24 h, read-out: IC50, MV4-11 cell proliferation (ATP content)
MV4-11 cells = experiment: Apoptosis in MV4-11 cells (Caspase-GLO, PARP and Caspase-3 cleavage, Annexin V); type: cell-based, human; conditions: MV4-11, 4 or 8 hours then drug washout, assessed at 24 hours

Structure (SMILES)	competition of dBET1 induced proximity [1]	PIM1 protein abundance (PIM1)	IC50 [2]	apoptotic response after pulsed treatment (MV4-11 cells)
O=C1CCC(N2C(=O)c3ccccc3C2=O)C(=O)N1 (centres unmarked) [thalidomide]	Inhibition of chemical adaptor function was accomplished			
Cc1sc2c(c1C)C(c1ccc(Cl)cc1)=N[C@@H](CC(=O)OC(C)(C)C)c1nnc(C)n1-2 [JQ1]	Inhibition of chemical adaptor function was accomplished	downregulated	1100 nM	did not yield a pronounced apoptotic response

From patent publication US9694084B2, “Methods to induce targeted protein degradation through bifunctional molecules” (Dana-Farber Cancer Institute, Inc., priority 2014, dated 2017)
